Two molecules from ChEMBL document CHEMBL5325453, “Isolation and identification of the new baicalin target protein to develop flavonoid structure-based therapeutic agents” (Bioorg Med Chem, 2023) can be followed below.

In test [1] the target is T1, Glyceraldehyde-3-phosphate dehydrogenase (Homo sapiens, UniProt P04406). Kind of test: Binding affinity to human recombinant GAPDH incubated for 30 mins by fluorescence quenching assay. The conditions noted are these: dose <= 50.0 µM.
Target sequence in this assay (P04406 2-335 limits assumed): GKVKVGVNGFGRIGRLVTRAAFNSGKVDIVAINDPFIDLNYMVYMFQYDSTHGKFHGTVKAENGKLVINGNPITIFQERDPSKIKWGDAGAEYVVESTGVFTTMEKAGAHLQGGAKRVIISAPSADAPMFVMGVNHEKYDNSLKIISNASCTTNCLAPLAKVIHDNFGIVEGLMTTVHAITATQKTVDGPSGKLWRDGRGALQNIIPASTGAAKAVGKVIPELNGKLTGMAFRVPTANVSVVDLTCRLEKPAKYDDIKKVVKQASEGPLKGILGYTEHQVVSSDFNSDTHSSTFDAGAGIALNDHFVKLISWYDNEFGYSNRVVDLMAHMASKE
Test [2] concerns the target T1, Glyceraldehyde-3-phosphate dehydrogenase. As to the kind of experiment: Binding affinity to human recombinant GAPDH assessed as Stem-Volmer quenching constant at 310 K incubated for 30 mins by fluorescence quenching assay.
Target sequence in this assay (P04406 2-335 limits assumed): as above
Test [3] has the same target. Kind of test: Binding affinity to human recombinant GAPDH assessed as change in gibbs free energy at 310 K incubated for 30 mins by fluorescence quenching assay.
Target sequence in this assay (P04406 2-335 limits assumed): as above
The target is the same in test [4]. As to the kind of experiment: Binding affinity to human recombinant GAPDH assessed as change in enthalpy at 298 K incubated for 30 mins by fluorescence quenching assay.
Target sequence in this assay (P04406 2-335 limits assumed): as above
The target is the same in test [5]. Kind of test: Binding affinity to human recombinant GAPDH assessed as change in gibbs free energy at 298 K incubated for 30 mins by fluorescence quenching assay.
Target sequence in this assay (P04406 2-335 limits assumed): as above
Test [6] has the same target. Kind of test: Binding affinity to human recombinant GAPDH assessed as equilibrium binding constant at 298 K incubated for 30 mins by fluorescence quenching assay.
Target sequence in this assay (P04406 2-335 limits assumed): as above
The target is the same in test [7]. Kind of test: Binding affinity to human recombinant GAPDH assessed as Stem-Volmer quenching constant at 298 K incubated for 30 mins by fluorescence quenching assay.
The target is the same in test [8]. As to the kind of experiment: Inhibition of human recombinant GADPH incubated for 30 mins by absorbance based assay.
Target sequence in this assay (P04406 whole entry): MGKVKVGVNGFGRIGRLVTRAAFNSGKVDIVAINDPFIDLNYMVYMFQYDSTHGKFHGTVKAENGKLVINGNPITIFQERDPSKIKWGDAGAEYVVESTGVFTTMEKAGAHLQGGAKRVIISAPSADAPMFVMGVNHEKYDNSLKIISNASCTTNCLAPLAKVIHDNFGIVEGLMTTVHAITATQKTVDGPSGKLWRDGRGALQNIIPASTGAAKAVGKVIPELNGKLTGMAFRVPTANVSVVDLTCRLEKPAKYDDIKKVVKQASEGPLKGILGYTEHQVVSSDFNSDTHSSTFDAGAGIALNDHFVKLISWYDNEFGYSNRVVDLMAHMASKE
Test [9] shares this target. Kind of test: Binding affinity to human recombinant GAPDH assessed as change in entropy at 298 K incubated for 30 mins by fluorescence quenching assay.
Test [10] has the same target. As to the kind of experiment: Binding affinity to human recombinant GAPDH assessed as equilibrium binding constant at 310 K incubated for 30 mins by fluorescence quenching assay.

The term IC50 denotes the point on the concentration scale where inhibition reaches its midpoint.

For `O=C(O)[C@H]1O[C@@H](Oc2cc3oc(-c4ccccc4)cc(=O)c3c(O)c2O)[C@H](O)[C@@H](O)[C@@H]1O` [BAICALIN], the Activity entry in test [1] is “Dose-Dependent Effect”. The KSV turned out to be 17.4 µM⁻¹ in test [2] and 27.3 µM⁻¹ in test [7]. In addition, the results for the deltaG in test [3] and in test [5] were -3.97 kcal/mol and -4.58 kcal/mol, respectively. For the same molecule, the deltaH in [4] was -19.5 kcal/mol. For the same molecule, the Kb in test [6] was 2270 M⁻¹; in test [10], 634 M⁻¹. For the same molecule, in test [8], the IC50 came to 40.9 µM. Also, the deltaS in [9] was -210 J/mol/K.

Consider `O=c1cc(-c2ccccc2)oc2cc(O)c(O)c(O)c12` [BAICALEIN], for which the Activity result in test [1] was “Dose-Dependent Effect”. Further, the figures for the KSV in [2] and in [7] were 26.3 µM⁻¹ and 26.7 µM⁻¹, respectively. Besides, the deltaG in [3] and in [5] was -3.59 kcal/mol each time. For the same molecule, the deltaH in [4] was -3.42 kcal/mol. Besides, the Kb in test [6] turned out to be 427 M⁻¹; in test [10], 341 M⁻¹. Also, the IC50 in test [8] amounted to 43.9 µM. In addition, the deltaS in test [9] is 2.38 J/mol/K.
